We go through 28 compounds from PubChem BioAssay AID588772 (The Scripps Research Institute Molecular Screening Center, 2011).

Active and inactive are the calls of the source. How the calls were made is not given here.

The assay has as its system 3C-like protease (3CLpro), SARS coronavirus. Put plainly: SARS 3CLpro protease inhibitors, late-stage follow-up, biochemical, fluorescence, single concentration, set 4 (AID 588772). To be noted: recombinant 3CLpro, fluorogenic substrate cleavage; at 100 µM; hits give high values.

Consider `CC(C)(C)NC(=O)C(c1cccnc1)N(C(=O)c1ccco1)c1ccc(Cc2ccccc2)cc1` (stereo not drawn), for which the inhibition was 77.6%.

Consider `CC(C)(C)c1ccc(N(Cc2cccnc2)C(=O)c2cnc[nH]2)cc1`, for which the inhibition was 46.8% (inactive).

As to `CC(C)(C)NC(=O)C(c1cccnc1)N(C(=O)c1ccco1)c1ccc(-c2ccncc2)cc1` (stereo not drawn), the inhibition is 27.8% (inactive).

For the compound `CC(C)(C)NC(=O)C(c1cccnc1)N(C(=O)c1ccco1)c1ccc(-c2cccn2C(=O)OC(C)(C)C)cc1` (stereo not drawn), the inhibition is 56.9%.

As to `CC(C)(C)NC(=O)C(c1cnc[nH]1)N(C(=O)c1ccco1)c1ccc(C(C)(C)C)cc1` (stereo not drawn), the inhibition was 22.8% (inactive).

Take `CC(C)(C)NC(=O)C(c1cn[nH]n1)N(C(=O)c1ccco1)c1ccc(C(C)(C)C)cc1` (stereo not drawn): the inhibition was 22.7% (inactive).

On to `CC(C)(C)NC(=O)C(c1cccnc1)N(C(=O)c1ccco1)c1ccc(-c2cncnc2)cc1` (stereo not drawn), for which the inhibition was 48.6% (inactive).

On to `CC(C)(C)NC(=O)C(c1cccnc1)N(C(=O)c1ccco1)c1ccc(-c2ccccc2)cc1` (stereo not drawn), for which the inhibition was 94.8%.

For `CC(C)(C)NC(=O)[C@H](c1cccnc1)N(C(=O)c1cnc[nH]1)c1ccc(C(C)(C)C)cc1`, the inhibition was 97.6%.

In the case of `CC(C)(C)NC(=O)C(c1cnccn1)N(C(=O)c1ccco1)c1ccc(C(C)(C)C)cc1` (stereo not drawn), the inhibition was 96.2%.

`CC(C)(C)NC(=O)C(c1ccn[nH]1)N(C(=O)c1ccco1)c1ccc(C(C)(C)C)cc1` (stereo not drawn): the inhibition was 6.3% (inactive).

Turning to `CC(C)(C)NC(=O)C(c1cccnc1)N(C(=O)c1ccco1)c1ccc(Oc2ccccc2)cc1` (stereo not drawn), the inhibition was 40.9% (inactive).

For `CC(C)(C)NC(=O)C(c1cccnc1)N(C(=O)c1cc2ccccc2o1)c1ccc(C(C)(C)C)cc1` (stereo not drawn), the inhibition was 14.3% (inactive).

For `CC(C)(C)NC(=O)C(c1cccnc1)N(C(=O)c1ccco1)c1ccc(-c2cccnc2)cc1` (stereo not drawn), the inhibition was 64.1%.

As to `CC(C)(C)NC(=O)C(c1cn[nH]c1)N(C(=O)c1ccco1)c1ccc(C(C)(C)C)cc1` (stereo not drawn), the inhibition is 16.1% (inactive).

In the case of `CC(C)(C)NC(=O)[C@@H](c1cccnc1)N(C(=O)c1cnc[nH]1)c1ccc(C(C)(C)C)cc1`, the inhibition was 47.1% (inactive).

As for `CC(C)(C)NC(=O)C(c1ccccn1)N(C(=O)c1ccco1)c1ccc(C(C)(C)C)cc1` (stereo not drawn), the inhibition is 0.7% (inactive).

For the compound `Cc1noc(C)c1-c1ccc(N(C(=O)c2ccco2)C(C(=O)NC(C)(C)C)c2cccnc2)cc1` (stereo not drawn), the inhibition was 85.1%.

With `CC(C)(C)NC(=O)C(c1cccnc1)N(C(=O)c1ccc(C(F)(F)F)o1)c1ccc(C(C)(C)C)cc1` (stereo not drawn), the inhibition is 17.8% (inactive).

Regarding `CC(C)(C)NC(=O)C(c1ccncc1)N(C(=O)c1ccco1)c1ccc(C(C)(C)C)cc1` (stereo not drawn), the inhibition is 60.2%.

Turning to `CC(C)(C)NC(=O)C(c1cccnc1)N(C(=O)c1ccco1)c1ccc(-c2cccc(F)c2F)cc1` (stereo not drawn), the inhibition is 90.2%.

On to `CC(C)(C)NC(=O)C(c1cccnc1)N(C(=O)c1ccco1)c1ccc(I)cc1` (stereo not drawn), for which the inhibition is 66.3%.

Take `CC(C)(C)NC(=O)C(c1ccnnc1)N(C(=O)c1ccco1)c1ccc(C(C)(C)C)cc1` (stereo not drawn): the inhibition was 94.3%.

As for `COc1cccc(Oc2ccc(N(C(=O)c3ccco3)C(C(=O)NC(C)(C)C)c3cccnc3)cc2)c1` (stereo not drawn), the inhibition was 52%.

With `Cc1ccc(C(C(=O)NC(C)(C)C)N(C(=O)c2ccco2)c2ccc(C(C)(C)C)cc2)cn1` (stereo not drawn), the inhibition is -4.1% (inactive).

As to `CC(C)(C)NC(=O)C(c1cccnc1)N(C(=O)c1ccco1)c1ccc(OCc2ccccc2)cc1` (stereo not drawn), the inhibition is 53.2%.

Turning to `CC(C)(C)NC(=O)C(c1cccnc1)N(C(=O)c1ccco1)c1ccc(-c2ccnc(F)c2)cc1` (stereo not drawn), the inhibition was 40.3% (inactive).

In the case of `Cn1cnc(C(=O)N(c2ccc(C(C)(C)C)cc2)C(C(=O)NC(C)(C)C)c2cccnc2)c1` (stereo not drawn), the inhibition was 51.3%.
